{"source": "patent US20080306019A1", "about": "“Dopamine Receptor Agonists in the Treatment and Prevention of Hiv-Induced Dementia” (priority 2005, published 2008)", "key": {"human fetal neurons": {"system": "human fetal neurons", "details": "for neuroprotection against synergistic toxicity of HIV proteins plus cocaine (percent neuronal death): pretreatment before Tat1-72 (40 nM) + gp120 (32.5 pM) + cocaine (1.6 μM); for magnitude of cell death vs Locke's buffer control: HIV proteins plus cocaine challenge with steroid pretreatment", "procedure": "Culture of Human Brain Cells: Neuronal cultures were prepared as described previously (Magnuson D S, et al. Ann Neurol 1995, 37: 373-380; Nath A, et al. J Virol 1996, 70: 1475-1480; New D, et al. J Neurovirol 1997, 3: 168-173). Human fetal brain specimens of gestational age 12-14 weeks were obtained with the consent of women opting for elective termination of pregnancy. Protocols were carried out with strict adherence to the guidelines of the National Institutes of Health (NIH) and with approval from the University of Kentucky Institutional Review Board. Briefly, after mechanical dissociation, the cells were suspended in Opti-MEM with 5% heat-inactivated fetal bovine serum, 0.2% N2 supplement and 1% antibiotic solution (penicillin G sodium 104 units/ml, streptomycin sulfate 10 μg/ml and amphotericin-B 25 μg/ml) (GIBCO). The cells were maintained in culture flasks at 37° C. in a humidified atmosphere of 5% CO2 and 95% air for at least a month. At least 3 days before the experiment was performed the cells were plated in flat bottom 96 well plates coated with poly-d-lysine. Sample cultures were stained for the neuron-specific enolase, microtubule-associated protein-2, synaptophysin, and glial fibrillary astrocytic protein (GFAP). […] Sample cultures were further characterized for the presence of ER-α and ER-β and dopaminergic neurons.\nNeurotoxicity Assay: At the time of the experimental treatment, the culture media was replaced with Locke's buffer containing (in mM) 154 NaCl, 5.6 KCl, 2.3 CaCl2, 1 MgCl2, 3.6 NaHCO3, 5 glucose, 5 N-2-hydroxyethylpiperazine-N′2-ethanesulfonic acid (HEPES) and 1% antibiotic solution (penicillin G sodium 104 units/ml, streptomycin sulfate 10 μg/ml and amphotericin-B 25 μg/ml) (pH 7.2). […] To replicate the stereoisomer specific neuroprotective properties of estrogen, the cultures were treated with either […] (10 nM), or 17α-E2 (10 nM) immediately preceding addition of the HIV proteins plus cocaine. To investigate the neuroprotective properties of other gonadal steroids, the cells were treated with various concentrations of PROG or T, immediately followed by exposure to the HIV proteins plus cocaine. […] Various concentrations of cholesterol were used as treatment prior to incubation with the HIV proteins plus cocaine to further characterize the nature of gonadal steroid neuroprotection. ICI-182,780, DMSO (10 nM), β-cyclodextrin (100 nM) and ethanol (10 nM) were also tested for neurotoxic/protective effects. ICI-182,780 and 17α-E2 were solvated in DMSO. […], T, PROG and cholesterol were β-cyclodextrin encapsulated to provide water solubility. Ethanol was used to solvate DHT. Tat1-72 was produced as indicated above, whereas gp120 was a gift from Chiron Corporation. The ICI-182,780 compound was obtained from Tocris Cookson, Inc. (Ellisville, Mo.). All other chemical agents were supplied by Sigma Chemicals (St. Louis, Mo.). At the end of the incubation period neuronal death was assessed by trypan blue (Sigma) exclusion assay as described previously (Vongher J and Frye C. Pharmacol Biochem Behav 1999, 64: 777-785; Magnuson D S, et al. Ann Neurol 1995, 37: 373-380; Nath A, et al. J Virol 1996, 70: 1475-1480)."}, "Sprague-Dawley rats": {"system": "Sprague-Dawley rats", "experiment": "Neonatal hippocampal gp120 injections with or without apomorphine: PPI in adult rats", "assay_type": "in vivo, rat"}, "dopamine transporter": {"biological_target": "T1, dopamine transporter (Rattus norvegicus, UniProt P23977)", "T1 construct": "followed by differential centrifugation resulting in a crude P2 preparation; from tissue; host or cells: rat striatum (synaptosomes, crude P2 preparation)", "T1 sequence (P23977 whole entry)": "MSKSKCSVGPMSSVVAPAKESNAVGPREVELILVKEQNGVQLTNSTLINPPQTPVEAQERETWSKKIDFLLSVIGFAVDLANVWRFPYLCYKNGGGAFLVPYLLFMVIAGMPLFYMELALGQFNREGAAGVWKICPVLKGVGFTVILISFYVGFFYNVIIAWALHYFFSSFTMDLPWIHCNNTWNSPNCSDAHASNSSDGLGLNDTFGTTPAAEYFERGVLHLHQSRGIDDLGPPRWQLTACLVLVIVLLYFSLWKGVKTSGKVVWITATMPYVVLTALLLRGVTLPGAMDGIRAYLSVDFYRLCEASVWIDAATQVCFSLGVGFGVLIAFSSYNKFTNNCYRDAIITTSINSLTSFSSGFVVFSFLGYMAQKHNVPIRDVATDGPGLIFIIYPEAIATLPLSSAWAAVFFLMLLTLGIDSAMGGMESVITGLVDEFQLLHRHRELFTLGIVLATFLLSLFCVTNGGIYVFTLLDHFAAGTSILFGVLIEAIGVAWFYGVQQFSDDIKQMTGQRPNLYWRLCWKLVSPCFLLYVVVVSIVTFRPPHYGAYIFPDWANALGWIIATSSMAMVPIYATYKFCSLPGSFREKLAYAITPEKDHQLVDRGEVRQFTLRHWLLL", "experiment": "[3H] dopamine uptake in rat striatal synaptosomes", "assay_type": "biochemical", "procedure": "[^3H] Dopamine uptake in synaptosomes assays: Striatal tissue from 4-5 month old male Sprague-Dawley rats (N=4) was homogenized in 5 mL ice-cold 0.32 M sucrose using a glass/Teflon homogenizer followed by differential centrifugation resulting in a crude P2 preparation. Crude P2 preparations are resuspended to a final volume of 15 mL (0.13-0.15 μg protein/tube) in assay buffer (consisting of 25 mM HEPES, 120 mM NaCl, 5 mM KCl, 2.5 mM CaCl2, 1.2 mM MgSO4, […] ascorbic acid, 1 μM pargyline and 2 mg/mL D-(+) glucose). P2 preparation was then added to assay tubes in 400 μL, followed by 50 μL of buffer or drug. Uptake was initiated by the addition of [7, 8 ^3H] dopamine, 0.02 M acetic acid:ethanol (1:1) solution (Amersham Biosciences, UK). Synaptosomes were preincubated first with 100 nM E2 30 minutes to the initiation of uptake, followed by addition of the appropriate concentrations of gp120 (30 pM) and tat (60 nM), or both proteins, 15 minutes prior to the start of the uptake assay. […] Filters were washed 15 seconds with ice-cold 0.9% NaCl and total [^3H] dopamine uptake was determined by scintillation spectrophotometry. Nonspecific uptake was determined in a parallel set of tubes run in the presence of 1 μM Mazindol, a dopamine uptake inhibitor. Data are expressed as the mean±SEM (N=4)."}, "SK-N-SH cells": {"system": "SK-N-SH cells", "experiment": "DCFH fluorescence (oxidative stress) in SK-N-SH cells", "assay_type": "cell-based, human", "details": "for effect of hormone on tat+gp120-induced fluorescence: gp120 (30 pM)+tat (60 nM), hormone 0.1 to 100 nM", "procedure": "Cell Culture Assays: SK-N-SH cells (ATCC) were grown in RPMI 1640 with 1% streptomycin/amphotericin and 10% FBS and incubated at 37° C. in the presence of 5% CO2. Cells were subcultured into 96-well plates at a density of 10^4 cell/well and used within 24 hours. Plates were first washed with warmed Krebs buffer (KHB). Stock DCFH in DMSO was diluted in KHB to a final concentration of 100 μM and incubated in each well for 30 minutes. DCFH dye was removed and cells were washed with warmed KHB and the appropriate drug or drug combination was added. Plates were returned to the incubator and drugs were allowed to incubate for 30 minutes. Incubation with the free radical generator SIN-1 (3-morpholinosydnonimine-peroxynitrite and superoxide) was carried out for an additional 30 minutes. The second series of experiments utilized tat (10-250 nM) or gp120 (25-100 pM) in place of the free radical generator.\nThe concentration of either E2 or progesterone was 0.1 to 100 nM. Plates were returned to the incubator with the hormones and were allowed to incubate for 15 minutes. SIN-1 (50 μM) was chosen as the free radical generator due to the production of peroxynitrite. Previous studies have shown that this concentration of SIN-1 yielded maximum increases in DCFH fluorescence (Wang and Joseph, 1999). In groups that examined the protective effects of E2 and/or progesterone, the hormone was added 15 minutes prior to addition of SIN-1, tat or gp120. Studies that have examined the simultaneous addition of the oxidative stress agent and hormone have yielded attenuated results. Following incubation with SIN-1, tat or gp120 (depending on the assay), fluorescence was determined by using a Bio-Tek plate reader with the settings of 485 n (excitation) and 585 nm (emission) with an integration time of 40 ms. Assays were run four separate times in triplicate. Data are expressed as mean of the separate assays±SEM."}, "rat hippocampal neurons": {"system": "rat hippocampal neurons", "experiment": "Live/Dead (Calcein/Ethidium) viability of rat hippocampal neuronal cultures"}, "[1]": {"details": "HIV proteins plus cocaine challenge"}}}
{"smiles": "C[C@]12CC[C@@H]3c4ccc(O)cc4CC[C@H]3[C@@H]1CC[C@H]2O", "note": "[17α-E2]", "values": [{"measurement": "neuroprotection against synergistic toxicity of HIV proteins plus cocaine (percent neuronal death)", "setting": "human fetal neurons; 15 hours", "value": "not significantly different from the synergistic toxicity control"}]}
{"smiles": "CN1CCc2cccc3c2[C@H]1Cc1ccc(O)c(O)c1-3", "note": "[APO, apomorphine]", "values": [{"measurement": "peak ASR magnitude in PPI trials: gp120×drug interaction", "setting": "Sprague-Dawley rats; 8-120 msec ISIs", "value": "significantly altered the gp120 dose response"}, {"measurement": "peak ASR latency in PPI trials", "setting": "Sprague-Dawley rats; rat, in vivo", "value": "did not have an impact on latency response"}, {"measurement": "peak ASR magnitude, adaptation trials: apomorphine", "setting": "Sprague-Dawley rats; rat, in vivo", "value": "attenuated the baseline of peak magnitude of the ASR"}]}
{"smiles": "CC(C)CCC[C@@H](C)[C@H]1CC[C@H]2[C@@H]3CC=C4C[C@@H](O)CC[C@]4(C)[C@H]3CC[C@]12C", "note": "[Cholesterol]", "values": [{"measurement": "concentration dependence of effect on percent neuronal death", "setting": "human fetal neurons; [1]", "value": "concentration-dependent effect of cholesterol with a significant linear decrease in percent neuronal death"}, {"measurement": "concentration giving maximal / full neuroprotection", "setting": "human fetal neurons; [1]", "value": 100, "unit": "nM"}, {"measurement": "magnitude of cell death vs Locke's buffer control", "setting": "human fetal neurons", "value": "not significantly different from that observed by Locke's buffer incubation"}, {"measurement": "neuroprotection against synergistic toxicity of HIV proteins plus cocaine (percent neuronal death)", "setting": "human fetal neurons; 15 hours", "value": "Significant neuroprotection"}]}
{"smiles": "C[C@]12CCC(=O)C[C@@H]1CC[C@@H]1[C@@H]2CC[C@]2(C)[C@@H](O)CC[C@@H]12", "note": "[DHT, 5α-Androstan-17β-ol-3-one; 17β-Hydroxy-5α-androstan-3-one]", "values": [{"measurement": "concentration dependence of effect on percent neuronal death", "setting": "human fetal neurons; [1]", "value": "no concentration-dependent effect"}, {"measurement": "magnitude of cell death vs Locke's buffer control", "setting": "human fetal neurons", "value": "significantly greater than that observed with Locke's Buffer control"}, {"measurement": "neuroprotection against synergistic toxicity of HIV proteins plus cocaine (percent neuronal death)", "setting": "human fetal neurons; 15 hours", "value": "significant neuroprotection"}]}
{"smiles": "C[C@]12CC[C@@H]3c4ccc(O)cc4CC[C@H]3[C@@H]1CC[C@@H]2O", "note": "[E2, 17β-estradiol]", "values": [{"measurement": "Vmax with gp120 + tat + E2", "setting": "dopamine transporter; 100 nM E2 with gp120 and tat, control 231", "value": 220, "unit": "nmol/mg protein/minute"}, {"measurement": "effect of E2 on gp120- or tat-induced reduction of [3H] dopamine uptake", "setting": "dopamine transporter; co-incubation with 100 nM E2", "value": "reversed this reduction"}, {"measurement": "SIN-1-induced fluorescence at highest concentration of E2", "setting": "SK-N-SH cells; 100 nM E2, 50 μM SIN-1", "value": "reduced fluorescence levels to control values"}, {"measurement": "lowest E2 concentration with significant reduction of SIN-1-induced fluorescence", "setting": "SK-N-SH cells; 50 μM SIN-1, E2 0.1 to 100 nM", "value": 1, "unit": "nM"}, {"measurement": "effect of hormone on tat+gp120-induced fluorescence", "setting": "SK-N-SH cells", "value": "concentrations of 1, 10 and 100 nM E2 were each significantly (p<0.001) different from control values"}, {"measurement": "neuroprotection against synergistic toxicity of HIV proteins plus cocaine (percent neuronal death)", "setting": "human fetal neurons; 15 hours", "value": "precluded by pretreatment with 10 nM dose of 17β-E2"}]}
{"smiles": "Fc1ccc(C(OCCN2CCN(CCCc3ccccc3)CC2)c2ccc(F)cc2)cc1", "note": "[GBR-12909]", "values": [{"measurement": "neurotoxicity of GBR 12909 alone", "setting": "rat hippocampal neurons; doses from 0.05 to 6 μM", "value": "not neurotoxic"}]}
{"smiles": "C[C@]12CC[C@@H]3c4ccc(O)cc4C[C@@H](CCCCCCCCC[S+]([O-])CCCC(F)(F)C(F)(F)F)[C@H]3[C@@H]1CC[C@@H]2O", "note": "(stereo partly shown) [ICI-182,780]", "values": [{"measurement": "effect of ICI 182,780 on E2 attenuation of tat+gp120-induced fluorescence", "setting": "SK-N-SH cells; 100 nM E2+1 μM ICI 182,780", "value": "Neither progesterone nor E2+ICI 182,780 values differed significantly from control values"}, {"measurement": "blockade of T (10 nM) neuroprotection", "setting": "human fetal neurons; ICI-182,780 100 nM pretreatment", "value": "fully blocked"}, {"measurement": "neuroprotection against synergistic toxicity of HIV proteins plus cocaine (percent neuronal death)", "setting": "human fetal neurons; 15 hours", "value": "nor was it neuroprotective against the toxic challenge"}, {"measurement": "toxicity alone vs Locke's buffer", "setting": "human fetal neurons; substance alone, 15 hours", "value": "not more toxic to the cultures than was Locke's buffer"}]}
{"smiles": "CC(=O)[C@H]1CC[C@H]2[C@@H]3CCC4=CC(=O)CC[C@]4(C)[C@H]3CC[C@]12C", "note": "[PROG, progesterone]", "values": [{"measurement": "effect of hormone on tat+gp120-induced fluorescence", "setting": "SK-N-SH cells", "value": "had no effect on tat+gp120-induced fluorescence"}, {"measurement": "concentration dependence of effect on percent neuronal death", "setting": "human fetal neurons; [1]", "value": "no concentration-dependent effect"}, {"measurement": "magnitude of cell death vs Locke's buffer control", "setting": "human fetal neurons", "value": "significantly greater than that observed with Locke's Buffer control"}, {"measurement": "neuroprotection against synergistic toxicity of HIV proteins plus cocaine (percent neuronal death)", "setting": "human fetal neurons; 15 hours", "value": "significant neuroprotection"}]}
{"smiles": "CN1CCc2cc(Cl)c(O)cc2[C@@H](c2ccccc2)C1", "note": "[SCH 23390]", "values": [{"measurement": "neuronal cell viability, SCH 23390 alone", "setting": "rat hippocampal neurons; 0.1 to 10 μM", "value": "did not cause any changes in neuronal cell viability"}]}
{"smiles": "N=c1c[n+](N2CCOCC2)[n-]o1", "note": "[SIN-1, 3-morpholinosydnonimine]", "values": [{"measurement": "lowest concentration with significant increase in fluorescence", "setting": "SK-N-SH cells; SIN-1 0-500 μM", "value": 5, "unit": "µM"}]}
